Results as given in patent US20260325533A1, “CDK INHIBITOR COMPOUNDS” (ALEKSIA THERAPEUTICS, INC., priority 2023, published 2026).
Like-named read-outs stand apart in the source and are kept apart here.

What was measured:
Format in all cases: biochemical
CDK2/CCNE1 = CDK2/CCNE1 (Homo sapiens, UniProt P24941); test: CDK2 homogeneous time-resolved fluorescence (HTRF) kinase assay; settings: CDK2/CCNE
How it was run: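 Compounds were titrated 11-point, half-log from typically 10 μM against 3 nM CDK2/cyclin E1 at 1 mM ATP, with a 20 min enzyme preincubation. Phosphorylation of 50 nM ULight-4E-BP1 peptide over 60 min at 23 °C was detected by europium anti-phospho antibody TR-FRET.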

CDK1/CCNB1 = CDK1/CCNB1 (Homo sapiens, UniProt P06493); test: CDK1 homogeneous time-resolved fluorescence (HTRF) kinase assay; settings: CDK1/CCNB; >250 nM marked x; read-out: CDK1/CCNB IC50 >250 nM
Sequence of CDK1/CCNB1 (P06493 whole entry): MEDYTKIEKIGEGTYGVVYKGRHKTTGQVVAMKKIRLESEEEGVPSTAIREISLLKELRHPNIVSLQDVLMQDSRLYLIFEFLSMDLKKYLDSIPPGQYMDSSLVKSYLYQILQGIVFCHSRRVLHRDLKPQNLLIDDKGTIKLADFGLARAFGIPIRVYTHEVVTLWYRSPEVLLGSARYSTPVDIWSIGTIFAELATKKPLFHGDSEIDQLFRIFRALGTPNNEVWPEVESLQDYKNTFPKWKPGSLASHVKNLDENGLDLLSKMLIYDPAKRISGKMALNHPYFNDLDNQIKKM
Sequence of CDK1/CCNB1 (P14635 whole entry partner): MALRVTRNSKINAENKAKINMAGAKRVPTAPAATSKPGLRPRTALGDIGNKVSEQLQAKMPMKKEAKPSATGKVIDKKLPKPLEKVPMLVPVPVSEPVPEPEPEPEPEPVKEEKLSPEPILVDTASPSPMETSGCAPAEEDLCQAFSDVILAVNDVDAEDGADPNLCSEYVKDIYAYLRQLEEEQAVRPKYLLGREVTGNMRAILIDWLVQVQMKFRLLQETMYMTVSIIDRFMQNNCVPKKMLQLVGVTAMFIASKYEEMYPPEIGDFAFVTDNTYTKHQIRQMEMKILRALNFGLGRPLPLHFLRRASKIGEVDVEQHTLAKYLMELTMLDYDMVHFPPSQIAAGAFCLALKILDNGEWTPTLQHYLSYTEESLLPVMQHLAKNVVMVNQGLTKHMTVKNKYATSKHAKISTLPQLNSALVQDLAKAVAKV
How it was run: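 0.5 nM CDK1/CCNB1 was preincubated 20 min at 23 °C with compound in HEPES pH-unspecified buffer (MgCl2, EGTA, DTT, Tween 20), then reacted 60 min with 1 mM ATP and 50 nM ULight-4E-BP1 (Thr37/46) peptide. EDTA-stopped reactions were detected with 2 nM Eu-anti-phospho antibody; IC50 from 11-point half-log titrations.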

CDK4/CCND3 = CDK4/CCND3 (Homo sapiens, UniProt P11802); test: CDK4 homogeneous time-resolved fluorescence (HTRF) kinase assay; settings: CDK4/CCND
Sequence of CDK4/CCND3 (P11802 whole entry): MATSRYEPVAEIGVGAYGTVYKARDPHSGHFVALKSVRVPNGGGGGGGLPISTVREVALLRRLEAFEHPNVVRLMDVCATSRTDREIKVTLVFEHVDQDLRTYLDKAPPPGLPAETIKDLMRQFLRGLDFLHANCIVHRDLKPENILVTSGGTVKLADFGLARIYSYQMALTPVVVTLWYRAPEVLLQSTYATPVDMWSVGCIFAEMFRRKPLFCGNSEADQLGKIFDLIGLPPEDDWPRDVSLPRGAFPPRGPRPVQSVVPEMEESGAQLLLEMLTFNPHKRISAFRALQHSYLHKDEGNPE
Sequence of CDK4/CCND3 (P30281 whole entry partner): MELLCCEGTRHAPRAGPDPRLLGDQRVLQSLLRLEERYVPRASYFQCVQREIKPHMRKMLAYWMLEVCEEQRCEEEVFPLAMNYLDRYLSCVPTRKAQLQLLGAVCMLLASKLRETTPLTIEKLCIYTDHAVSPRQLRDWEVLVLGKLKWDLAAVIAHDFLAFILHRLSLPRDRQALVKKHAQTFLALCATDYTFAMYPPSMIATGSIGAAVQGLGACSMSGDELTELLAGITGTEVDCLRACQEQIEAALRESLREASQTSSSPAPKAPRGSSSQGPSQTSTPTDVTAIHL
How it was run: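 Compounds were preincubated with 1.5 nM CDK4/CCND3 for 20 min at 23 °C in HEPES buffer (pH not given), then reacted 60 min with 1 mM ATP and 50 nM ULight-4E-BP1 (Thr37/46) peptide. EDTA stop, Eu-anti-phospho-4E-BP1 detection; 665/615 nm ratio; IC50 from 11-point half-log titrations from 10 μM.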

CDK6/CCND1 = CDK6/CCND1 (Homo sapiens, UniProt Q00534); test: CDK6 homogeneous time-resolved fluorescence (HTRF) kinase assay; settings: CDK6/CCND
Sequence of CDK6/CCND1 (Q00534 whole entry): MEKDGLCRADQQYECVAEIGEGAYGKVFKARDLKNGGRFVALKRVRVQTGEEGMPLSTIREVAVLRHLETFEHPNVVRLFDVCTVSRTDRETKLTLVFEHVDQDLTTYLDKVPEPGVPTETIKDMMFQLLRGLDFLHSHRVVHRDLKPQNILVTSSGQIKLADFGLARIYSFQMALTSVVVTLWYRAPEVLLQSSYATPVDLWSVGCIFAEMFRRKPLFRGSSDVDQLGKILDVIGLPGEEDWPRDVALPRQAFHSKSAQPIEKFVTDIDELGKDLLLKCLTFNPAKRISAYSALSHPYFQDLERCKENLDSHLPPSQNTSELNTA
Sequence of CDK6/CCND1 (P24385 whole entry partner): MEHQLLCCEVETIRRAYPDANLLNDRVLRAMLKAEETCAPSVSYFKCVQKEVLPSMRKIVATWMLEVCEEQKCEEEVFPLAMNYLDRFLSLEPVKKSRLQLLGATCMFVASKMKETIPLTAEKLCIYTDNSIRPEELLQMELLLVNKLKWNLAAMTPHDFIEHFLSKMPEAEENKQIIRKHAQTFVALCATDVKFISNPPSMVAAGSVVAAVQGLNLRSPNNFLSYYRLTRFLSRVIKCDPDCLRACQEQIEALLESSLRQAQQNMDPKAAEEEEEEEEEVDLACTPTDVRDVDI
How it was run: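 1 nM enzyme, 1 mM ATP, 50 nM ULight-4E-BP1 (Thr37/46) peptide, 1% DMSO; 20 min compound preincubation, 60 min reaction, 23 °C. EDTA stop, 2 nM Eu-anti-phospho-4E-BP1 antibody 60 min. TR-FRET 665 nm (or 665/615 ratio); IC50 from 11-point half-log titration, top 10 μM.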

[1] = <25 nM, read-out: CDK2/CCNE IC50 <25 nM
[2] = 25-250 nM marked x, read-out: CDK4/CCND IC50 25-250 nM
[3] = 25-250 nM marked x, read-out: CDK6/CCND IC50 25-250 nM
[4] = 25-250 nM marked x, read-out: CDK2/CCNE IC50 25-250 nM
[5] = >250 nM marked x, read-out: CDK4/CCND IC50 >250 nM
[6] = >250 nM marked x, read-out: CDK6/CCND IC50 >250 nM
[7] = >250 nM marked x, read-out: CDK2/CCNE IC50 >250 nM

Structure (SMILES)	IC50 (CDK2/CCNE1; [1])	IC50 (CDK1/CCNB1)	IC50 (CDK4/CCND3; [2])	IC50 (CDK6/CCND1; [3])	IC50 (CDK2/CCNE1; [4])	IC50 (CDK4/CCND3; [5])	IC50 (CDK6/CCND1; [6])	IC50 (CDK2/CCNE1; [7])	IC50 (CDK4/CCND3; <25 nM, read-out: CDK4/CCND IC50 <25 nM)
COC(=O)[C@H]1CC[C@H](C#Cc2nccc3cnc(Nc4ccc(S(C)(=O)=O)cc4)cc23)CC1 [Ex 213, methyl (1r,4r)-4-((7-((4-(methylsulfonyl)phenyl)amino)-2,6-naphthyridin-1-yl)ethynyl)cyclohexane-1-carboxylate]	< 25 nM	> 250 nM	25 to 250 nM	25 to 250 nM	–	–	–	–	–
CS(=O)(=O)c1ccc(Nc2cc3c(C#CC4CC4)nccc3cn2)cc1 [Ex 214, 5-(cyclopropylethynyl)-N-(4-(methylsulfonyl)phenyl)-2,6-naphthyridin-3-amine]	< 25 nM	> 250 nM	25 to 250 nM	25 to 250 nM	–	–	–	–	–
Cc1c(-c2nccc3cnc(Nc4ccc(S(C)(=O)=O)cc4)cc23)ccc2c1cnn2CCC1CNC1 [Ex 216, 5-(1-(2-(azetidin-3-yl)ethyl)-4-methyl-1H-indazol-5-yl)-N-(4-(methylsulfonyl)phenyl)-2,6-naphthyridin-3-amine]	–	> 250 nM	–	–	25 to 250 nM	> 250 nM	> 250 nM	–	–
C=CS(=O)(=O)c1ccc(Nc2cc3c(-c4cccc(CO)c4)nccc3cn2)cc1 [Ex 217, (3-(7-((4-(vinylsulfonyl)phenyl)amino)-2,6-naphthyridin-1-yl)phenyl)methanol]	–	> 250 nM	–	–	25 to 250 nM	> 250 nM	> 250 nM	–	–
COc1c(-c2nccc3cnc(Nc4ccc(S(C)(=O)=O)cc4)cc23)ccc2[nH]ncc12 [Ex 220, 5-(4-methoxy-1H-indazol-5-yl)-N-(4-(methylsulfonyl)phenyl)-2,6-naphthyridin-3-amine]	–	> 250 nM	–	–	25 to 250 nM	> 250 nM	> 250 nM	–	–
Cc1cc2[nH]ncc2cc1-c1nccc2cnc(Nc3ccc(S(=O)(=O)CCO)cc3)cc12 [Ex 222, 2-((4-((5-(6-methyl-1H-indazol-5-yl)-2,6-naphthyridin-3-yl)amino)phenyl)sulfonyl)ethan-1-ol]	–	> 250 nM	–	–	25 to 250 nM	> 250 nM	> 250 nM	–	–
CS(=O)(=O)c1ccc(Nc2cc3c(ccnc3[C@H]3CC[C@H](C(N)=O)CC3)cn2)cc1 [Ex 223, (1r,4r)-4-(7-((4-(methylsulfonyl)phenyl)amino)-2,6-naphthyridin-1-yl)cyclohexane-1-carboxamide]	–	> 250 nM	25 to 250 nM	–	25 to 250 nM	–	> 250 nM	–	–
C=CCNC(=O)[C@H]1CC[C@H](c2nccc3cnc(Nc4ccc(S(C)(=O)=O)cc4)cc32)CC1 [Ex 224, (1r,4r)-N-allyl-4-(7-((4-(methylsulfonyl)phenyl)amino)-2,6-naphthyridin-1-yl)cyclohexane-1-carboxamide]	–	> 250 nM	–	–	25 to 250 nM	> 250 nM	> 250 nM	–	–
CN(C)C(=O)[C@H]1CC[C@H](c2nccc3cnc(Nc4ccc(S(C)(=O)=O)cc4)cc32)CC1 [Ex 225, (1r,4r)-N,N-dimethyl-4-(7-((4-(methylsulfonyl)phenyl)amino)-2,6-naphthyridin-1-yl)cyclohexane-1-carboxamide]	–	> 250 nM	–	–	–	> 250 nM	> 250 nM	> 250 nM	–
CS(=O)(=O)c1ccc(Nc2cc3c(ccnc3[C@H]3CC[C@H](C(=O)NC4CCOCC4)CC3)cn2)cc1 [Ex 226, (1r,4r)-4-(7-((4-(methylsulfonyl)phenyl)amino)-2,6-naphthyridin-1-yl)-N-(tetrahydro-2H-pyran-4-yl)cyclohexane-1-carboxamide]	–	> 250 nM	–	–	–	> 250 nM	> 250 nM	> 250 nM	–
CN1CCN(C(=O)[C@H]2CC[C@H](c3nccc4cnc(Nc5ccc(S(C)(=O)=O)cc5)cc43)CC2)CC1 [Ex 227, (4-methylpiperazin-1-yl)((1r,4r)-4-(7-((4-(methylsulfonyl)phenyl)amino)-2,6-naphthyridin-1-yl)cyclohexyl)methanone]	–	> 250 nM	–	–	–	> 250 nM	> 250 nM	> 250 nM	–
CS(=O)(=O)c1ccc(Nc2cc3c(ccnc3[C@H]3CC[C@H](C(=O)N4CCSCC4)CC3)cn2)cc1 [Ex 228, ((1r,4r)-4-(7-((4-(methylsulfonyl)phenyl)amino)-2,6-naphthyridin-1-yl)cyclohexyl)(thiomorpholino)methanone]	–	> 250 nM	–	–	–	> 250 nM	> 250 nM	> 250 nM	–
C=CS(=O)(=O)c1ccc(Nc2cc3c(-c4ccc5cn[nH]c5c4)nccc3cn2)cc1 [Ex 241, 5-(1H-indazol-6-yl)-N-(4-(vinylsulfonyl)phenyl)-2,6-naphthyridin-3-amine]	–	> 250 nM	–	25 to 250 nM	25 to 250 nM	> 250 nM	–	–	–
Cc1c(-c2nccc3cnc(Nc4ccc(S(C)(=O)=O)cc4)cc23)ccc2c1cnn2C1CCN(C)CC1 [Ex 242, 5-(4-methyl-1-(1-methylpiperidin-4-yl)-1H-indazol-5-yl)-N-(4-(methylsulfonyl)phenyl)-2,6-naphthyridin-3-amine]	–	> 250 nM	–	–	25 to 250 nM	> 250 nM	> 250 nM	–	–
Cc1c(-c2nccc3cnc(Nc4ccc(S(C)(=O)=O)cc4)cc23)ccc2c1cnn2CC1CN(C)C1 [Ex 243, 5-(4-methyl-1-((1-methylazetidin-3-yl)methyl)-1H-indazol-5-yl)-N-(4-(methylsulfonyl)phenyl)-2,6-naphthyridin-3-amine]	–	> 250 nM	25 to 250 nM	25 to 250 nM	25 to 250 nM	–	–	–	–
CC(C)(C)c1nccc2cnc(Nc3ccc(S(C)(=O)=O)cc3)cc12 [Ex 244, 5-(tert-butyl)-N-(4-(methylsulfonyl)phenyl)-2,6-naphthyridin-3-amine]	–	> 250 nM	–	25 to 250 nM	25 to 250 nM	> 250 nM	–	–	–
C=CS(=O)(=O)c1ccc(Nc2cc3c(-c4ccc5[nH]ncc5c4C)nccc3cn2)cc1 [Ex 245, 5-(4-methyl-1H-indazol-5-yl)-N-(4-(vinylsulfonyl)phenyl)-2,6-naphthyridin-3-amine]	–	> 250 nM	–	–	25 to 250 nM	> 250 nM	> 250 nM	–	–
CC(=O)N[C@H]1CC[C@H](C#Cc2nccc3cnc(Nc4ccc(S(C)(=O)=O)cc4)cc23)CC1 [Ex 246, N-((1r,4r)-4-((7-((4-(methylsulfonyl)phenyl)amino)-2,6-naphthyridin-1-yl)ethynyl)cyclohexyl)acetamide]	–	> 250 nM	25 to 250 nM	25 to 250 nM	25 to 250 nM	–	–	–	–
CS(=O)(=O)c1ccc(Nc2cc3c(C#C[C@H]4CC[C@H](N)CC4)nccc3cn2)cc1 [Ex 247, 5-(((1r,4r)-4-aminocyclohexyl)ethynyl)-N-(4-(methylsulfonyl)phenyl)-2,6-naphthyridin-3-amine]	–	> 250 nM	25 to 250 nM	25 to 250 nM	25 to 250 nM	–	–	–	–
CS(=O)(=O)c1ccc(Nc2cc3c(N4CC5(CN(c6ccc(C#N)cc6)C5)C4)nccc3cn2)cc1 [Ex 248, 4-(6-(7-((4-(methylsulfonyl)phenyl)amino)-2,6-naphthyridin-1-yl)-2,6-diazaspiro[3.3]heptan-2-yl)benzonitrile]	–	> 250 nM	–	–	–	> 250 nM	> 250 nM	> 250 nM	–
CN(C)C/C=C/S(=O)(=O)c1ccc(Nc2cc3c(N4CCC(C#N)CC4)nccc3cn2)cc1 [Ex 249, (E)-1-(7-((4-((3-(dimethylamino)prop-1-en-1-yl)sulfonyl)phenyl)amino)-2,6-naphthyridin-1-yl)piperidine-4-carbonitrile]	–	> 250 nM	25 to 250 nM	–	–	–	> 250 nM	> 250 nM	–
Cc1c(-c2nccc3cnc(Nc4ccc(S(C)(=O)=O)cc4)cc23)ccc2nn(CC(N)=O)cc12 [Ex 250, 2-(4-methyl-5-(7-((4-(methylsulfonyl)phenyl)amino)-2,6-naphthyridin-1-yl)-2H-indazol-2-yl)acetamide]	< 25 nM	> 250 nM	25 to 250 nM	25 to 250 nM	–	–	–	–	–
CS(=O)(=O)N1CCC(Nc2cc3c(C#Cc4ccc(C#N)cc4)nccc3cn2)CC1 [Ex 251, 4-((7-((1-(methylsulfonyl)piperidin-4-yl)amino)-2,6-naphthyridin-1-yl)ethynyl)benzonitrile]	< 25 nM	> 250 nM	–	25 to 250 nM	–	–	–	–	< 25 nM
